What all share (test): NCI tumour cell line growth inhibition, 48 h
Assay [1] has as its system NCI-H226 lung.
For assay [2], the system named is SF-295 CNS.
Assay [3] has as its system SN12C renal.
Assay [4] concerns SNB-19 CNS.
The subject of assay [5] is SF-268 CNS.
The test system of assay [6] is MDA-MB-435.
The subject of assay [7] is RPMI-8226 leukemia.
For assay [8], the system named is SK-MEL-2 melanoma.
Assay [9] concerns 786-0 renal.
For assay [10], the system named is CCRF-CEM leukemia.

Molecules are shown by their SMILES. Several values for one entry are separate records, joined by “and”; a condition that tells them apart may be missing. Equal values may be shown once.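 48-hour exposure; five concentrations; linearly interpolated endpoints. Here, GI50 denotes the concentration required for 50% inhibition of growth. TGI: total growth inhibition.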

With `CO[C@H]1C[C@](C)(O)Cc2cc3c(c(O)c21)C(=O)c1c(O)cc2c(c1C3=O)O[C@@H]1O[C@@]2(C)[C@H](O)[C@@H](N(C)C)[C@@H]1O`, the TGI in [1] is 3.26 µM and 5.15 µM; in assay [2], 1.96 µM and 2.14 µM; in assay [3], 2.57 µM and 3.48 µM; in assay [4] it was 5.95 µM and 7.5 µM; in [5], 7.01 µM and 11.9 µM; in assay [6], 5.23 µM. Also, the TGI is 3.66 µM and 10.9 µM in assay [7]; 5.09 µM and 5.82 µM in assay [8]; 1.8 µM and 2.18 µM in assay [9]; 1.22 µM and 4.21 µM in [10]. Besides, the GI50 was 0.513 µM in assay [2]; 0.56 µM in [3]; 0.578 µM in assay [4]; 1.52 µM in [5]; 0.667 µM and 0.494 µM in assay [7]; 0.302 µM in assay [9]. In addition, the GI50 in assay [10] was 0.18 µM.
For `O=C(c1ccco1)c1c(C(F)(F)F)n([O-])c2cc(C(F)(F)F)ccc2[n+]1=O`, the GI50 in assay [1] is 1.77 µM; in [2], 1.29 µM; in assay [3], 1.29 µM; in assay [4], 1.47 µM; in assay [5], 0.87 µM; in assay [6], 1.47 µM. Further, the GI50 was 0.455 µM in assay [7], 2.62 µM in assay [8], 0.479 µM in assay [9] and under 0.0434 µM in [10]. Further, the TGI in assay [1] came to 3.58 µM; in assay [2] it was 2.83 µM; in assay [3] it was 3.45 µM; in [4], 2.99 µM; in [5] it was 2.66 µM; in assay [6], 3.1 µM. Besides, the TGI in assay [7] stood at 1.19 µM; in assay [8] it was 6.73 µM; in assay [9], 0.998 µM; in [10] it was 0.352 µM.
For the molecule `CC(C)c1cccc(O)c(=O)c1`, the TGI in assay [1] is 50.1 µM; in [2] it was 71.6 µg/mL and > 100 µM; in assay [3] it was > 75 µg/mL and > 100 µM; in [5], 23.6 µg/mL and > 61.6 µM; in assay [6], 39 µg/mL; in [8], 32.4 µg/mL and 95.7 µM. In assay [9], the TGI was > 75 µg/mL and > 100 µM. For the same molecule, the GI50 is 2.52 µg/mL in [2]; 4.26 µg/mL in assay [3]; 1.2 µg/mL in assay [4]; 1.55 µg/mL in assay [5]; 2.14 µg/mL in [6]; 0.826 µg/mL in [7]. Besides, the GI50 in [8] is 6.86 µg/mL; in assay [9], 5.54 µg/mL; in [10], 0.312 µg/mL.
For `O=C(C#Cc1ccccc1)C1=Cc2ccccc2OC1`, the TGI in assay [1] was 8.36 µM; in [2], 48.3 µM; in assay [3], over 100 µM; in [4], 29.6 µM; in assay [5] it was 12.5 µM; in assay [6] it was 12.5 µM. Also, the TGI worked out at 58.7 µM in [7], 11.7 µM in assay [8], 6.17 µM in [9] and 0.528 µM in assay [10].
As for `CCCCCCCC(=O)SCC/C=C/[C@@H]1CC(=O)NCc2nc(cs2)C2=N[C@@](C)(CS2)C(=O)N[C@@H](C(C)C)C(=O)N1`, the GI50 was 0.906 µM in [1]; 0.0392 µM in assay [2]; 0.034 µM in [3]; 0.0419 µM in assay [4]; 0.0769 µM in assay [5]; under 0.01 µM in assay [6]. Moreover, the GI50 in assay [7] was 0.0283 µM; in assay [8] it was 0.0304 µM; in [9], 0.139 µM; in assay [10] it was 0.0265 µM. In addition, the TGI was 22.2 µM in assay [1]; 0.402 µM in assay [2]; over 100 µM in assay [3]; over 41.1 µM in assay [4]; over 50.5 µM in [5]; 1.9 µM in [6]. Moreover, the TGI in assay [7] is over 100 µM; in assay [8] it was 0.597 µM; in [9] it was 19.7 µM; in [10] it was over 100 µM.
Turning to `O=CN1N=C(c2cccc(Nc3ccnc4cc(Cl)ccc34)c2)CC1c1ccccc1` (stereo not drawn), the GI50 was 3.32 µM in assay [1]; 0.306 µM in assay [2]; 0.617 µM in assay [3]; 0.585 µM in assay [4]; 0.768 µM in [5]; 0.0889 µM in assay [6]. The GI50 was 0.471 µM in assay [7], 0.258 µM in [8], 0.543 µM in assay [9] and 0.31 µM in assay [10]. In addition, the TGI in assay [1] is over 55.7 µM; in assay [2], 1.66 µM; in [3] it was over 54.3 µM; in [4], over 100 µM; in assay [5] it was 41.2 µM; in [6], 0.432 µM. The TGI amounted to 4.51 µM in assay [7], 0.825 µM in [8], 18 µM in assay [9] and 1.48 µM in assay [10].
With `CCCCCCCC/C=C1\CCC(CN2CCOCC2)C1=O` (stereo not drawn), the TGI stood at 33.3 µM in assay [1]; 28.2 µM in assay [2]; 12.5 µM in [3]; 24.6 µM in assay [4]; 21.1 µM in assay [5]; 15.3 µM in [6]. For the same molecule, the TGI in [7] stood at 4.19 µM; in assay [8], 28.8 µM; in [9] it was 3.07 µM; in [10], 10.9 µM.
In the case of `Cc1nc2ccccn2c1NC(=O)NNC(=S)Nc1ccc(F)cc1`, the GI50 in [1], in assay [2], in assay [3], in [4], in [5] and in [6] was over 100 µM each time. For the same molecule, the GI50 in [7], in assay [8], in assay [9] and in assay [10] was over 100 µM in each case. The TGI in [1], in assay [2], in assay [3], in [4], in assay [5] and in [6] was over 100 µM in each case. In addition, the TGI in assay [7], in assay [8], in [9] and in [10] was over 100 µM in each case.

(Values after PubChem BioAssay (NCI).)
